Reference: ChEMBL document CHEMBL1153474, “Novel tricyclic antagonists of the prostaglandin D2 receptor DP2 with efficacy in a murine model of allergic rhinitis” (Bioorg Med Chem Lett, 2009)
The source made the active and inactive calls. The calls are words filed in the database; no cut-off is given here.

How the values were obtained:
[1] = biological target: T1, Prostaglandin D2 receptor 2 (Homo sapiens, UniProt Q9Y5Y4); assay: Displacement of [3H]PGD2 from human prostaglandin D2 receptor
T1 sequence (Q9Y5Y4 whole entry): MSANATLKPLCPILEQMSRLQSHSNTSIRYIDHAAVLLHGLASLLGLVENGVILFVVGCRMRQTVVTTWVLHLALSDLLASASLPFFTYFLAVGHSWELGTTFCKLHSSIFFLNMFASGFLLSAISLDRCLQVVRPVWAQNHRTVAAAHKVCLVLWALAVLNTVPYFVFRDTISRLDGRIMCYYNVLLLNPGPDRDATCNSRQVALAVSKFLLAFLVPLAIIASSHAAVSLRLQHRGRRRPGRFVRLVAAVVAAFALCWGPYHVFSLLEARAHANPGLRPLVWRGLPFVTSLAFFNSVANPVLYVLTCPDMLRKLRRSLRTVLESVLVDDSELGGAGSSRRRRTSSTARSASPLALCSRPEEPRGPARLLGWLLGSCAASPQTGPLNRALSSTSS

[2] = biological target: T1, Prostaglandin D2 receptor 2; assay: Displacement of [3H]PGD2 from human prostaglandin D2 receptor in presence of human serum albumin
Blood = assay: Inhibition of eosinophil […] in human whole blood assessed as change in morphology after 4 mins using flow cytometry by leukocyte shape change assay; assay type: functional, tissue-based
[3] = biological target: T2, Prostaglandin D2 receptor (Homo sapiens, UniProt Q13258); assay: Displacement of [3H]PGD2 from […] in human platelet membrane; assay type: cell membranes
T2 sequence (Q13258 whole entry): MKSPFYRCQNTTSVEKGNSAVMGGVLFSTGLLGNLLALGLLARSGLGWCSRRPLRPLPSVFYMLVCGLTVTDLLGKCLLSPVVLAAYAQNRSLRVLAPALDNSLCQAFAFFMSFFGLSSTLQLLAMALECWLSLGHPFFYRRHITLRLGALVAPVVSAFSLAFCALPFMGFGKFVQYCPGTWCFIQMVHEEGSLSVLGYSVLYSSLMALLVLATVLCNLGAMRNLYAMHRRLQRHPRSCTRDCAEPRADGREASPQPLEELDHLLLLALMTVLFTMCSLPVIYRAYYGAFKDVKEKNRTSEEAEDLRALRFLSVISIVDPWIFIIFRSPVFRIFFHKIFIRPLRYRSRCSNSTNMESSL

Thromboxane A2 receptor = biological target: T3, Thromboxane A2 receptor (Homo sapiens, UniProt P21731); assay: Displacement of [3H]SQ-29548 from thromboxane receptor in human platelet membrane; assay type: cell membranes
T3 sequence (P21731 whole entry): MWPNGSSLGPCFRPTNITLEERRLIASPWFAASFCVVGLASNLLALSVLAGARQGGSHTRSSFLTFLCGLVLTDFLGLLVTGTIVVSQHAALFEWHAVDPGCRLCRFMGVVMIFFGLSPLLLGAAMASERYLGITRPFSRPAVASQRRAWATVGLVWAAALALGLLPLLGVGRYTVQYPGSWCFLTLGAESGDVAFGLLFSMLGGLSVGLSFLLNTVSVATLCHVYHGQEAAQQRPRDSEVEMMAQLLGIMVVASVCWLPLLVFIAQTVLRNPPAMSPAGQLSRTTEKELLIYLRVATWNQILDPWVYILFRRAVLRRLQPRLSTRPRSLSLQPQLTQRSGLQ

Prostacyclin receptor = Prostacyclin receptor (Homo sapiens, UniProt P43119); assay: Displacement of [3H]iloprost from human prostacyclin receptor expressed in human 293 cell membrane; assay type: cell membranes
Cytochrome P450 3A4 [4] = biological target: T4, Cytochrome P450 3A4 (Homo sapiens, UniProt P08684); assay: Inhibition of human CYP3A4; assay type: ADME
Cytochrome P450 2C9 = Cytochrome P450 2C9 (Homo sapiens, UniProt P11712); assay: Inhibition of human CYP2C9; assay type: ADME
Cytochrome P450 2D6 = Cytochrome P450 2D6 (Homo sapiens, UniProt P10635); assay: Inhibition of human CYP2D6; assay type: ADME
Cytochrome P450 3A4 [5] = biological target: T4, Cytochrome P450 3A4; assay: Induction of CYP3A4 activity in cryopreserved human hepatocytes at 10 uM using midazolam as substrate after 2 days relative to rifampicin; settings: 48 h
[6] = Cmin in BALB/c mouse at 10 mg/kg, po administered once daily for 3 days measured after 8 hrs; assay type: ADME, organism-based; set-up: dose 10 mg/kg, route oral; settings: in vivo, read-out: Cmin
[7] = Cmax in BALB/c mouse at 10 mg/kg, po administered once daily for 3 days measured after 1 hr; assay type: ADME, organism-based; set-up: dose 10 mg/kg, route oral; settings: in vivo
Mus musculus [8] = assay: Reduction of ovalbumin-induced increase in nasal rubs in BALB/c mouse at 10 mg/kg, po once daily for 3 days administered 20 days after ip challenge with ovalbumin followed by intranasal ovalbumin challenge 1 hr post drug dose measured after 8 mins; assay type: functional, organism-based; set-up: dose 10 mg/kg
Mus musculus [9] = assay: Reduction of ovalbumin-induced increase in sneezes in BALB/c mouse at 10 mg/kg, po once daily for 3 days administered 20 days after ip challenge with ovalbumin followed by intranasal ovalbumin challenge 1 hr post drug dose measured after 8 mins; assay type: functional, organism-based; set-up: dose 10 mg/kg

Chain of Cytochrome P450 2C9 (P11712 whole entry): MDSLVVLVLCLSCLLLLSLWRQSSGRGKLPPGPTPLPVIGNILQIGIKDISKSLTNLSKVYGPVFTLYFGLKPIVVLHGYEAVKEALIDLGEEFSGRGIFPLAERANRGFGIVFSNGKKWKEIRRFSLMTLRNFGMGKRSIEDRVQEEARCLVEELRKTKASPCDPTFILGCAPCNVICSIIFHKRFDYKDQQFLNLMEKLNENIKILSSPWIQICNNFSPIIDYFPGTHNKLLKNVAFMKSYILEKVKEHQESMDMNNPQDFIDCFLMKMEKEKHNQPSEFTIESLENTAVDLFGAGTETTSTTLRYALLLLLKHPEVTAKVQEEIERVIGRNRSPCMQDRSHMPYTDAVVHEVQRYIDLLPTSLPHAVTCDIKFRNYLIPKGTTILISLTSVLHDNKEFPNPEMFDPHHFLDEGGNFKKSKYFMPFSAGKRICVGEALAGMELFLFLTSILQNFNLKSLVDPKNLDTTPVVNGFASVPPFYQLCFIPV
Chain of Prostacyclin receptor (P43119 whole entry): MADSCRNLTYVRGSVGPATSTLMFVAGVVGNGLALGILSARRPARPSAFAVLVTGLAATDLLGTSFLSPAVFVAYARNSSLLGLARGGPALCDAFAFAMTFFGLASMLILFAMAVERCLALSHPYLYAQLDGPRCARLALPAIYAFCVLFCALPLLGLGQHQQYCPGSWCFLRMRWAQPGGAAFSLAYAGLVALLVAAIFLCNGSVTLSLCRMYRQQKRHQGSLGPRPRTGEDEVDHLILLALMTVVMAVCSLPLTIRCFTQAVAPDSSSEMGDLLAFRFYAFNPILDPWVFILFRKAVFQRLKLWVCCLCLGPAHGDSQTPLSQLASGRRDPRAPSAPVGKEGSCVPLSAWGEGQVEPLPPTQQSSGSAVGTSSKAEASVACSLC
Chain of Cytochrome P450 2D6 (P10635 whole entry): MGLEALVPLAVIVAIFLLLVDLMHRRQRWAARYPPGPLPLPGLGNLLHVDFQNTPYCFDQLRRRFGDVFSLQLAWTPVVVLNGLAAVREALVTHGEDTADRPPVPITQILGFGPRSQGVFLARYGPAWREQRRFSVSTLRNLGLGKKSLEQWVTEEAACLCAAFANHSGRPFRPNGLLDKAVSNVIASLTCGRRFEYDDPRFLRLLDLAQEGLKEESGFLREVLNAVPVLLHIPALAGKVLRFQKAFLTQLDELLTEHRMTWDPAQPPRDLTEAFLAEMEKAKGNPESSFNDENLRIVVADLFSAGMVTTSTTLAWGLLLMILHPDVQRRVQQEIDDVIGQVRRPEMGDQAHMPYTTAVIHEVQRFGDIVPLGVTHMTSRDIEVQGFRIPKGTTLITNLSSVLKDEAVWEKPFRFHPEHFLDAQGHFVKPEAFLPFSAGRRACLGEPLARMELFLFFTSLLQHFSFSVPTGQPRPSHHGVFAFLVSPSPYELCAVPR
T4 sequence (P08684 whole entry): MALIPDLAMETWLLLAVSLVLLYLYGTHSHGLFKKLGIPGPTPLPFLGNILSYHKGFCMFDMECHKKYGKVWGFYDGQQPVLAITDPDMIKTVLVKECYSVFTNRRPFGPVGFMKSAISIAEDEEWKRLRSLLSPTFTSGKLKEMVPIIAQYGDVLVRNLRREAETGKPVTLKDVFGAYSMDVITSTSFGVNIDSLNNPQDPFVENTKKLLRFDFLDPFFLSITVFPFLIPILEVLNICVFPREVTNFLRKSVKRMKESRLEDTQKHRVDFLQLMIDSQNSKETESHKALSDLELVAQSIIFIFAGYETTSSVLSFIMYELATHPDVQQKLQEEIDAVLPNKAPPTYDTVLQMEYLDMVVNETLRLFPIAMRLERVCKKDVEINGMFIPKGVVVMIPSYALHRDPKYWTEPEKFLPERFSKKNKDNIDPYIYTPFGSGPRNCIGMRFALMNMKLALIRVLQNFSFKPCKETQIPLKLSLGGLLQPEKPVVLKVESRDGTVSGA

SMILES: CN([C@@H]1CCc2c(c3nccnc3n2CC(=O)O)C1)S(=O)(=O)c1ccc(F)cc1
- IC50 [1]: 0.096 µM
- IC50 [2]: 0.127 µM
- IC50 (Blood): 0.14 µM
- IC50 [3]: 37.8 µM
- IC50 (Thromboxane A2 receptor): > 100 µM
- IC50 (Prostacyclin receptor): > 100 µM
- IC50 (Cytochrome P450 3A4 [4]): > 30 µM
- IC50 (Cytochrome P450 2C9): 15 µM
- IC50 (Cytochrome P450 2D6): > 30 µM
- Activity (Cytochrome P450 3A4 [5]): 0.9%

SMILES: CN(C)c1nc(Cc2ccc(NC(=O)c3ccc(C(F)(F)F)cc3)cc2)nc(N(C)C)c1CC(=O)O [BI-671800]
- IC50 [1]: 0.042 µM
- IC50 [2]: 0.744 µM
- IC50 (Blood): 0.744 µM
- IC50 [3]: 25.6 µM
- IC50 (Thromboxane A2 receptor): 62.6 µM
- IC50 (Prostacyclin receptor): > 100 µM
- IC50 (Cytochrome P450 2C9): > 30 µM
- IC50 (Cytochrome P450 2D6): > 30 µM
- Activity (Cytochrome P450 3A4 [5]): 0.4%

SMILES: CN([C@@H]1CCc2c(c3cccnc3n2CC(=O)O)C1)S(=O)(=O)c1ccc(F)cc1
- IC50 [1]: 0.457 µM
- IC50 [2]: 1.34 µM
- IC50 (Blood): 3.1 µM
- IC50 [3]: 9 µM
- IC50 (Thromboxane A2 receptor): > 100 µM
- IC50 (Prostacyclin receptor): > 100 µM
- IC50 (Cytochrome P450 3A4 [4]): > 30 µM
- IC50 (Cytochrome P450 2C9): > 30 µM
- IC50 (Cytochrome P450 2D6): > 30 µM
- Activity (Cytochrome P450 3A4 [5]): 2.8%

SMILES: CN([C@@H]1CCC2=C(C1)C1C=CC=CC1N2CC(=O)O)S(=O)(=O)c1ccc(F)cc1 (stereo partly specified)
- IC50 [1]: 0.001 µM
- IC50 [2]: 0.004 µM
- IC50 (Blood): 0.001 µM
- IC50 [3]: 2.2 µM
- IC50 (Thromboxane A2 receptor): > 100 µM
- IC50 (Prostacyclin receptor): > 100 µM
- IC50 (Cytochrome P450 3A4 [4]): > 30 µM
- IC50 (Cytochrome P450 2C9): 18 µM
- IC50 (Cytochrome P450 2D6): > 30 µM
- Activity (Cytochrome P450 3A4 [5]): 30.8%

SMILES: CN([C@@H]1CCc2c(CC(=O)O)c3ncccc3n2C1)S(=O)(=O)c1ccc(F)cc1
- IC50 [1]: 24.9 µM
- IC50 [2]: 51 µM
- IC50 (Blood): 41.6 µM
- IC50 [3]: 41.7 µM
- IC50 (Thromboxane A2 receptor): > 100 µM
- IC50 (Prostacyclin receptor): > 100 µM
- IC50 (Cytochrome P450 3A4 [4]): > 30 µM
- IC50 (Cytochrome P450 2C9): > 30 µM
- IC50 (Cytochrome P450 2D6): > 30 µM
- Activity (Cytochrome P450 3A4 [5]): 0.9%

SMILES: CN([C@@H]1CCc2c(CC(=O)O)c3ccccc3n2C1)S(=O)(=O)c1ccc(F)cc1 [MK-7246]
- IC50 [1]: 0.006 µM
- IC50 [2]: 0.02 µM
- IC50 (Blood): 0.007 µM
- IC50 [3]: 1 µM
- IC50 (Thromboxane A2 receptor): > 100 µM
- IC50 (Prostacyclin receptor): > 100 µM
- IC50 (Cytochrome P450 3A4 [4]): 7 µM
- IC50 (Cytochrome P450 2C9): 5 µM
- IC50 (Cytochrome P450 2D6): > 30 µM
- Activity (Cytochrome P450 3A4 [5]): 0.7%

SMILES: Cc1c(Cc2ccc3ccccc3n2)c2cc(F)ccc2n1CC(=O)O [TIMAPIPRANT]
- IC50 (Blood): 0.261 µM
- IC50 [3]: 7.3 µM
- IC50 (Thromboxane A2 receptor): > 100 µM
- IC50 (Prostacyclin receptor): 57.9 µM
- IC50 (Cytochrome P450 2C9): > 30 µM
- IC50 (Cytochrome P450 2D6): > 30 µM
- Activity (Cytochrome P450 3A4 [5]): 58.8%

SMILES: CN([C@@H]1CCc2c(c3ncccc3n2CC(=O)O)C1)S(=O)(=O)c1ccc(F)cc1
- concentration at 8 h [6]: 120 nM
- Cmax [7]: 770 nM
- IC50 [1]: 0.006 µM
- IC50 [2]: 0.011 µM
- IC50 (Blood): 0.001 µM
- IC50 [3]: > 100 µM
- IC50 (Thromboxane A2 receptor): > 100 µM
- IC50 (Prostacyclin receptor): > 100 µM
- IC50 (Cytochrome P450 3A4 [4]): > 30 µM
- IC50 (Cytochrome P450 2C9): > 30 µM
- IC50 (Cytochrome P450 2D6): > 30 µM
- Activity (Cytochrome P450 3A4 [5]): 2.8%
- Activity (Mus musculus [8]): Active
- Activity (Mus musculus [9]): Active

SMILES: CN([C@@H]1CCc2c(CC(=O)O)c3ccccn3c2C1)S(=O)(=O)c1ccc(F)cc1
- IC50 [1]: 0.018 µM
- IC50 [2]: 0.046 µM
- IC50 (Blood): 0.006 µM
- IC50 [3]: 4.4 µM
- IC50 (Thromboxane A2 receptor): > 100 µM
- IC50 (Prostacyclin receptor): > 100 µM
- IC50 (Cytochrome P450 3A4 [4]): > 30 µM
- IC50 (Cytochrome P450 2C9): 17 µM
- IC50 (Cytochrome P450 2D6): > 30 µM
- Activity (Cytochrome P450 3A4 [5]): 0.9%

SMILES: CN([C@@H]1CCc2c(c3ccncc3n2CC(=O)O)C1)S(=O)(=O)c1ccc(F)cc1
- IC50 [1]: 0.86 µM
- IC50 [2]: 0.94 µM
- IC50 (Blood): 0.452 µM
- IC50 [3]: > 100 µM
- IC50 (Thromboxane A2 receptor): > 100 µM
- IC50 (Prostacyclin receptor): > 100 µM
- IC50 (Cytochrome P450 3A4 [4]): > 30 µM
- IC50 (Cytochrome P450 2C9): > 30 µM
- IC50 (Cytochrome P450 2D6): > 30 µM
- Activity (Cytochrome P450 3A4 [5]): 0.4%

SMILES: CN([C@@H]1CCc2c(c3ccccn3c2CC(=O)O)C1)S(=O)(=O)c1ccc(F)cc1
- IC50 [1]: 0.094 µM
- IC50 [2]: 0.061 µM
- IC50 (Blood): 0.016 µM
- IC50 [3]: 31 µM
- IC50 (Prostacyclin receptor): > 100 µM
- IC50 (Cytochrome P450 3A4 [4]): 11 µM
- IC50 (Cytochrome P450 2C9): 10 µM
- IC50 (Cytochrome P450 2D6): > 30 µM

SMILES: O=C(O)CCn1c2c(c3ccccc31)C[C@H](NS(=O)(=O)c1ccc(F)cc1)CC2 [RAMATROBAN]
- IC50 [1]: 0.311 µM
- IC50 [2]: 0.754 µM
- IC50 (Blood): 1.21 µM
- IC50 [3]: 33.4 µM
- IC50 (Thromboxane A2 receptor): 0.014 µM
- IC50 (Prostacyclin receptor): > 100 µM
- IC50 (Cytochrome P450 2C9): 15 µM
- IC50 (Cytochrome P450 2D6): > 30 µM
